Values of other authors in patent publication US11865206B2 (priority 2018, dated 2024).
Where two headings read alike, the source gives them in different places.

Columns and labels:
[1] = not given; remark: listed apart in the source

O=NN(CCCl)C(=O)NCCCl [Carmustine, 1,3-bis(2-chloroethyl)-1-nitrosourea]
Solubility (in alcohol and lipids): highly soluble | Solubility (in water): poorly soluble | Crossing of the blood brain barrier ([1]; following IV infusion): can cross the blood brain barrier | Oral bioavailability ([1]; oral): poor oral bioavailability
